Data reported in patent US7067700B2, “Process for preparing sertraline hydrochloride polymorphic form II” (Fermion Oy, priority 2001, dated 2006).
Counter-ions that a name gives are not always drawn.

What was measured:
[1] = stability of sertraline hydrochloride polymorphic forms; format: physicochemical; settings: statement in words
[2] = dissolution / solubility of sertraline hydrochloride polymorphic forms; format: physicochemical; settings: comparison of polymorphic forms; statement in words
[3] = claimed in the cited patent; cited from earlier work
[4] = claimed in the cited patent; cited from earlier work; remark: listed apart in the source

| Structure (SMILES) | stability of the polymorph ([1]; form II prepared by the method described, no test described) | stability of the polymorph (comparison of forms) ([1]; compared with form II) | dissolution properties [2] | stability as claimed in U.S. Pat. No. 5,734,083 [3] | solubility in aqueous fluids as claimed in U.S. Pat. No. 5,734,083 [4] |
| --- | --- | --- | --- | --- | --- |
| CNC1CCC(c2ccc(Cl)c(Cl)c2)c2ccccc21 (stereo not drawn) [(1S-cis)-4-(3,4-dichlorophenyl)-1,2,3,4-tetrahydro-N-methyl-1-naphtalenamine hydrochloride] | stable |  |  |  |  |
| CN[C@H]1CC[C@@H](c2ccc(Cl)c(Cl)c2)c2ccccc21.Cl [Form I] |  | more stable | poor dissolution properties |  |  |
| CN[C@H]1CC[C@@H](c2ccc(Cl)c(Cl)c2)c2ccccc21.Cl [Polymorphic form T1] |  |  | dissolves better than forms I and II | acceptable stable | enhanced solubility |
